Measurements: the SangsterLogP compilation

Tests used:
[1] = method code SF, from DOI: 10.1021/jm00063a015, PMID: 8388471

Compound | logP | logP [1]
CCCCCCCC(=O)n1cc(C[C@@H](NC(=O)CC2NC(=O)C3C4CCC(CC4)N3C2=O)C(=O)N[C@@H](Cc2ccccc2)C(=O)N(C)Cc2ccccc2)c2ccccc21 (stereo partly specified) | 7.29 | 
CN(Cc1ccccc1)C(=O)C(Cc1ccccc1)NC(=O)C(Cc1cn(C(=O)OCc2ccccc2)c2ccccc12)NC(=O)CC1NC(=O)C2C3CCC(CC3)N2C1=O (stereo unspecified) |  | 5.66
CN(Cc1ccccc1)C(=O)C(Cc1ccccc1)NC(=O)C(Cc1c[nH]c2ccccc12)NC(=O)CC1NC(=O)C2C3CCC(CC3)N2C1=O (stereo unspecified) | 3.18 | 
CN(Cc1ccccc1)C(=O)C(Cc1ccccc1)NC(=O)C(Cc1cn(C(=O)CCCCCCN)c2ccccc12)NC(=O)CC1NC(=O)C2C3CCC(CC3)N2C1=O (stereo unspecified) | 2.48 | 
CN(Cc1ccccc1)C(=O)C(Cc1ccccc1)NC(=O)C(Cc1cn(C(=O)OCCCCCCN)c2ccccc12)NC(=O)CC1NC(=O)C2C3CCC(CC3)N2C1=O (stereo unspecified) | 2.95 | 

Second part, the molecule after the results:

logP | logP [1] | Compound
4.05 |  | COC(=O)n1cc(CC(NC(=O)CC2NC(=O)C3C4CCC(CC4)N3C2=O)C(=O)NC(Cc2ccccc2)C(=O)N(C)Cc2ccccc2)c2ccccc21 (stereo unspecified)
5.33 |  | CN(Cc1ccccc1)C(=O)[C@H](Cc1ccccc1)NC(=O)[C@@H](Cc1cn(C(=O)OC(C)(C)C)c2ccccc12)NC(=O)CC1NC(=O)C2C3CCC(CC3)N2C1=O (stereo partly specified)
3.85 |  | CN(Cc1ccccc1)C(=O)C(Cc1ccccc1)NC(=O)C(Cc1cn(C)c2ccccc12)NC(=O)CC1NC(=O)C2C3CCC(CC3)N2C1=O (stereo unspecified)
 | 3.47 | CN(Cc1ccccc1)C(=O)C(Cc1ccccc1)NC(=O)C(Cc1cn(C=O)c2ccccc12)NC(=O)CC1NC(=O)C2C3CCC(CC3)N2C1=O (stereo unspecified)
3.69 |  | CC(=O)n1cc(CC(NC(=O)CC2NC(=O)C3C4CCC(CC4)N3C2=O)C(=O)NC(Cc2ccccc2)C(=O)N(C)Cc2ccccc2)c2ccccc21 (stereo unspecified)
3.15 |  | CN(Cc1ccccc1)C(=O)C(Cc1ccccc1)NC(=O)C(Cc1cn(C(=O)CCC(=O)O)c2ccccc12)NC(=O)CC1NC(=O)C2C3CCC(CC3)N2C1=O (stereo unspecified)
